Measured values taken from patent US20080125358A1, “Methods for Chk2 inhibitor patient selection” (UNIVERSITY OF MASSACHUSETTS MEDICAL SCHOOL, priority 2006, published 2008).

How the values were obtained:
Chk2 = Chk2 (Homo sapiens, UniProt O96017); settings: expressed and purified Chk2; cited from earlier work
[1] = tested on: HCT116 clones #102 and #202; assay: Xenograft tumor model, HCT116 clones conditionally expressing Chk2-DN; type: in vivo, mice
Description: All examples involving animals were approved by an Institutional Animal Care and Use Committee. […] Approximately 2.5×10^6 cells were injected into each hindlimb flank of 6-8 week old female immunocompromised CB17 SCID/beige mice (i.e., thereby generating 2 tumors/mouse). […] Tumor growth was monitored with a caliper according to the formula ½ [length (mm)]×[width (mm)]^2. At the end of the experiment, tumors were excised, and frozen sections from the various groups were stained with control IgG or a FITC-conjugated antibody to HA, and analyzed by fluorescence microscopy.

[2] = tested on: prostate carcinoma PC3 cells; assay: Survivin expression after DNA damage, Western blotting; type: cell-based, human; settings: analyzed after 12 hours
Description: (§1) Tumor cell types were exposed to ionizing radiation at doses ranging between 5-10 Gray (Gy) using a ^137Cs source (Gammacell 40), or, alternatively, treated with adriamycin (0-100 nM, Sigma). Cells were harvested after 2-48 h, and analyzed by Western blotting. Antibodies were used having affinities for; i) survivin (1:1000, Novus Biologicals); ii) Chk2 (1:500; Upstate Biotechnology); iii) cytochrome c (1:100; BD Biosciences-Pharmingen); iv) COX-IV (1:500; BD Biosciences-Clontech); v) caspase-3 (1:1000, Cell Signaling Technology); vi) cleaved caspase-3 (1:1000, Cell Signaling Technology); vii) cyclin B1 (1:1000, GNS1, Santa Cruz Biotechnology, Inc.); viii) XIAP (1:1000; Transduction Laboratories); xi) β-actin (1:5000, clone AC-15, A5441; Sigma-Aldrich); and xii) Thr^68-phosphorylated Chk2 (Cell Signaling Technology).

HCT116 cells [3] = assay: Caspase activity and cell death by multiparametric flow cytometry after DNA damage; type: cell-based; settings: p53+/+ or p53-/- HCT116 cells, ionizing radiation
Description: For gene silencing by short interference RNA (siRNA), tumor cell types were transfected with control (VIII) or survivin-derived (S4) double stranded (ds) RNA oligonucleotides (50 nM) using oligofectamine (3 μl/well), as previously described. Beltrami et al., “Acute ablation of survivin uncovers p53-dependent mitotic checkpoint functions and control of mitochondrial apoptosis” J Biol Chem 279:2077-84 (2004). Alternatively, cells were transfected with control or SMART® pool siRNA oligonucleotides to Chk1 or Chk2 (Dharmacon) using oligofectamine. A replication-deficient adenovirus expressing Chk2-DN was constructed using the pAd-Easy® system, and used at a multiple of infection (m.o.i.) of 50.
Tumor cell types were treated with or without ionizing radiation, harvested after 24 h, and analyzed for changes in cell cycle distribution by propidium iodide staining and flow cytometry. Alternatively, cells were exposed to ionizing radiation, and analyzed after 24-48 h for propidium iodide staining (red channel) and active caspase-3 activity (CaspaTag®, Intergen®, green channel), by simultaneous multiparametric flow cytometry. Dohi et al., “Mitochondrial survivin inhibits apoptosis and promotes tumorigenesis” J Clin Invest 114:1117-1127 (2004).

HCT116 clones #101, #102 = assay: Conditional induction of apoptosis, propidium iodide staining and flow cytometry; type: cell-based; settings: doxycycline induction plus adriamycin, adriamycin-sensitive clones
Description: Breast adenocarcinoma MCF-7, colon adenocarcinoma HCT116, or prostate adenocarcinoma PC3 cells were obtained from the American Type Culture Collection (ATCC, Manassas Va.), and maintained in culture as recommended by the supplier. Wild-type, p53^−/−, or Chk2^−/− HCT116 cells were kindly provided by Dr. B. Vogelstein (Johns Hopkins University, Baltimore, Md.). The rat insulinoma cell line INS-1 stably transfected with mitochondrially-targeted survivin fused to GFP was created as previously described. Dohi et al., “Mitochondrial survivin inhibits apoptosis and promotes tumorigenesis” J Clin Invest 114:1117-1127 (2004). Wild-type HCT116 cells were stably transfected to conditionally express a kinase-dead Asp^347 Asn^347 Chk2 dominant-negative (DN) cDNA under the control of a tetracycline (tet)-regulated promoter (tet-on system, Clontech), as described previously. Grossman et al., “Inhibition of melanoma tumor growth in vivo by survivin targeting” Proc. Natl. Acad. Sci. U.S.A. 98:635-640 (2001). Conditional induction of Chk2-DN was monitored after addition of 2 μg/ml doxycycline (dox).
[…] Alternatively, cells were exposed to ionizing radiation, and analyzed after 24-48 h for propidium iodide staining (red channel) and active caspase-3 activity (CaspaTag®, Intergen®, green channel), by simultaneous multiparametric flow cytometry. […]

MCF-7 cells = assay: Ionizing radiation-induced survivin expression, Western blotting; type: cell-based; settings: MCF-7 cells transfected
Description: as §1
For gene silencing by short interference RNA (siRNA), tumor cell types were transfected with control (VIII) or survivin-derived (S4) double stranded (ds) RNA oligonucleotides (50 nM) using oligofectamine (3 μl/well), as previously described. Beltrami et al., “Acute ablation of survivin uncovers p53-dependent mitotic checkpoint functions and control of mitochondrial apoptosis” J Biol Chem 279:2077-84 (2004). Alternatively, cells were transfected with control or SMART® pool siRNA oligonucleotides to Chk1 or Chk2 (Dharmacon) using oligofectamine. […]

HCT116 cells [4] = assay: Colony formation assay in soft agar; type: cell-based; settings: increasing doses of ionizing radiation
Description: Wild-type HCT116 cells were transduced with a replication deficient adenovirus encoding GFP, Chk2-DN, or Thr^34→Ala^34 survivin DN at an m.o.i. of 50. O'Connor et al., “A p34(cdc2) survival checkpoint in cancer” Cancer Cell 2:43-54 (2002). Twenty-four hours later, approximately 3×10^4 cells were treated with or without ionizing radiation, and suspended in 1.5 ml of DMEM plus 10% FBS and 0.35% bactoagar (BD) in 6-well culture plates containing 1.5 ml of 0.75% agarose in growth medium at the bottom layer. Plates were incubated at 37° C. in 5% CO2 for 2 weeks. Colonies were stained with 0.005% crystal violet (Sigma-Aldrich), and counted using a dissecting microscope under high-power field.

Chain of Chk2 (O96017 whole entry): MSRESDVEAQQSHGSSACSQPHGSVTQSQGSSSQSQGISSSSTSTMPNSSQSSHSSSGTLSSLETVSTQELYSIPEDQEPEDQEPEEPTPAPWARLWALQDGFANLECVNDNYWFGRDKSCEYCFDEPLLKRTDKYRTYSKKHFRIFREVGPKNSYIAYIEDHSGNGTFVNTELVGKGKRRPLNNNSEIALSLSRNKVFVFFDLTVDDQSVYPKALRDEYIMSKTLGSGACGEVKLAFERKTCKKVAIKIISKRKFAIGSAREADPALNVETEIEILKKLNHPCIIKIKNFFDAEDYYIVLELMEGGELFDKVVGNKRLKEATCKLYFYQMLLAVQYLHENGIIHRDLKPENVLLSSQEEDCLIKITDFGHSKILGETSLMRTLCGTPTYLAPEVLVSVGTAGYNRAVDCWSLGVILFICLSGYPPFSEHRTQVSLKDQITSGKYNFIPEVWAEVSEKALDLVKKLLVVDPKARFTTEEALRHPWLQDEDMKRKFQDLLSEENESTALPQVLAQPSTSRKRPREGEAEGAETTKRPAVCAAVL

CN[C@@H]1C[C@H]2O[C@@](C)([C@@H]1OC)n1c3ccccc3c3c4c(c5c6ccccc6n2c5c31)C(=O)NC4O (stereo partly drawn) [UCN-01]
confirmation of Chk2 potency (Chk2): could not be confirmed

COc1cccc2c1C(=O)c1c(O)c3c(c(O)c1C2=O)C[C@@](O)(C(=O)CO)C[C@@H]3O[C@H]1C[C@H](N)[C@H](O)[C@H](C)O1 [adriamycin]
effect on tumor growth ([1]; adriamycin-resistant clone #202, SCID/beige mice): no effect | inhibition of tumor growth ([1]; adriamycin-sensitive clone #102, SCID/beige mice, adriamycin 2 mg/kg): 50-60% | survivin expression [2]: concentration-dependent increase in survivin

Chk2-DN: kinase-dead Asp347 to Asn347 Chk2 dominant-negative mutant, expressed by transfection, adenovirus or tet-on system
induction of caspase activity and cell death (HCT116 cells [3]): comparable induction of caspase activity and cell death | induction of apoptosis (HCT116 clones #101, #102): 2- to 4 fold | ionizing radiation-induced survivin expression (MCF-7 cells): abolished the increase in survivin expression | colony formation in soft agar (HCT116 cells [4]): nearly completely abolished

Thr^34→Ala^34 survivin-DN: dominant-negative survivin mutant delivered by replication deficient adenovirus
colony formation in soft agar (HCT116 cells [4]): nearly completely abolished
